Measured values reported in patent publication EP2662079A1 (Ordway Research Institute, Inc., priority 2012, dated 2013).

Tests used:
MDA-MB-231 cells = experiment: RNA microarray of MDA-MB-231 cells; format: cell-based, human
Experimental: Tetrac and nanoparticulate Tetrac. Tetrac was custom-synthesized by Peptido GMBH (Bembach, Germany). The proprietary Tetrac nanoparticle was custom-synthesized by covalently-bonding of the outer ring hydroxyl of Tetrac to PLGA via an intervening linker. […] Cell culture for definition of effects of Tetrac formulations on tumor cell proliferation. MDA-MB-231 cells were purchased from ATCC (Manassas, VA). Cells were maintained until use in DMEM that contained 10% FBS. The incubator conditions were 5% CO2/95% 02 and 37° C. The action of unmodified Tetrac and nanoparticulate on MDA-MB-231 cells was determined in a perfusion bellows cell culture system we have recently described for quantitating pharmaceutical agent pharmacodynamics in vitro. (See Lin et al., J Steroid Biochem Mol Biol 113: 182-188 (2009)). In brief, the cell culture system is a disposable bioreactor capable of high density cell culture for studies of anti-cancer drugs. Bellows-induced alternate flow of culture medium and air through porous matrices where cells are grown provides a relatively low shear, high aeration, foam-free culture environment. Medium level is raised and lowered to submerge and expose matrices to create a dynamic interface between air and media on the cell surface. Anchorage-dependent cells are grown on plastic flakes in the system. The flakes facilitate harvesting of whole cells for analysis. In the present studies, 5 x 10^7 cells were seeded in each perfusion flask and incubated at 37 C overnight. Flakes thereafter were sampled at regular intervals (Figure 44), subjected to trypsinization and the harvested cells counted. When Tetrac or nanoparticulate Tetrac were initially added to the system, flasks contained 20-50 x 10^6 cells. Cell cultures were re-fed with 1% FBS-containing medium. Studies were carried out in duplicate flasks and replicated once. Cell culture for harvesting of RNA. MDA-MB-231 cells were maintained in DMEM that was supplemented with 10% FBS in a 5% CO2/95% 02 air incubator at 37°C. For two days prior to exposure to Tetrac and nanoparticulate Tetrac, cells were maintained in 0.25% FBS that was stripped of estrogen and thyroid hormone. (See Lin et al., Biochemistry 42: 7571-7579 (2003)). RNA microarray and analysis. Microarray analysis experiments were conducted as described previously. (See Glinsky et al., J Clin Invest 115: 1503-1521 (2005); Glinsky et al., J Clin Invest 113: 913-923 (2004); Glinsky et al., Clin Cancer Res 10: 2272-2283 (2004); and Glinsky et al., Mol Carcinog 37: 209-221 (2003)). In brief, the array hybridization and processing, retrieval of data and analysis utilized standard sets of Affymetrix (Santa Clara, CA) equipment, software and protocols in the microarray core facility of Ordway Research Institute. […] Sample purity and integrity were verified with an Agilent BioAnalyzer (Santa Clara, CA). Expression analysis of 54,675 transcripts for each sample was by Affymetrix HG-U133A Plus 2.0 arrays. MAS5.0 software was used for data retrieval and analysis and concordant changes of gene expression in response to unmodified Tetrac and nanoparticulate Tetrac were defined by two-tailed t test at a threshold p value < 0.01.
Expression of ~54,000 transcripts was analyzed in control and drug-treated cultures, using Affymetrix Human Genome U133 plus 2.0 microarrays. Subsequent analysis was focused on genes affected by treatment at p < 0.01. There was 93% concordance between Tetrac and Tetrac NP in terms of genes affected; notable disparities included downregulation of epidermal growth factor receptor (EGFR) by Tetrac NP and no affect of unmodified Tetrac on this gene.

GL261 cells [1] = experiment: Potentially lethal damage repair (PLDR); format: cell-based, murine
Experimental: PLDR was also measured using the 10% survival level in both control and Tetrac treated-cells, and was also done for both exponentially growing and plateau phase cells. The total 10% survival dose was given, and then cells were placed back into the 37°C incubator for various periods of time. At 0, 0.5, 1.0, 1.5, 2.0, 3.0, 4.0, 6.0, 8.0, and 10.0 hours, flasks were removed, and processed for survival assessment.
To investigate the effects of Tetrac on SLDR and PLDR, cells were chosen that had been given a one-hour treatment with Tetrac at two different times, i.e., at 70 and 270 hours post-seeding).

GL261 cells [2] = experiment: Cell multiplicity after Tetrac exposure; format: cell-based, murine; details: after one hour exposure to Tetrac
Experimental: Cell multiplicity (CM) was determined from Giemsa stained slides by counting the number of cells per microcolony under 20 X magnification. At least 400 microcolonies were counted.
The length of time that Tetrac biologically affected GL261 cells was also determined. To do this, the multiplicity relationship defined above was utilized. Tetrac was added to cells one hour prior to the determination of the multiplicity. After the exposure of exponentially growing GL261 cells to Tetrac, the Tetrac containing medium was removed from GL261 cells, which contained an unknown residual and fresh medium (without Tetrac) was added. As a function of time (i.e., 0, 1, 2, 3, 4, 6, 8, and 10 hours, and 1-6 days), the cells, containing an unknown residual amount of remaining Tetrac, were then processed for determination of the multiplicity index (i.e. the number of cells per microcolony).

[3] = gene expression, listed as unmodified Tetrac

## O=C(O)Cc1cc(I)c(Oc2cc(I)c(O)c(I)c2)c(I)c1 [Tetrac, 3,3',5,5'-tetraiodothyroacetic acid]
MDA-MB-231 cells; 10^-7 M, 24 h
  expression of epidermal growth factor receptor (EGFR): no affect
MDA-MB-231 cells; gene expression
  Change: CBY1: significantly increased
  Change: CDKN2C (Cyclin-dependent kinase inhibitor): ↑
  Change: Cyclins (Cell cycle regulators): ↓
  Change: THBS1: strongly induced
MDA-MB-231 cells; [3]
  Change: BCL2L14: not a significant stimulatory action
  Change: CASP2: not a significant stimulatory action
  Change: MCL1: did not significantly affect
  Change: XIAP: also acted on XIAP
GL261 cells [1]; exponential cells
  factor by which Tetrac inhibited PLDR: 1.9
GL261 cells [1]; plateau phase cells
  factor by which Tetrac decreased PLDR expression: 3.4
GL261 cells [2]
  time for a 50% return of the cell multiplicity factor towards control level: approximately 2.5 days
  time post Tetrac treatment at which decrease in the CM factor was recorded at 50%: 60 h
